Consider 27 molecules from the NIST ThermoML archive (doi:10.1016/j.jct.2019.05.011).

This data set is described as follows: activity coefficient (dimensionless); of the first substance listed, at infinite dilution; xn = mol fraction of the nth substance listed. The conditions noted are these: 101.33 kPa, Liquid, Chromatography, x1 = 0.

± gives the expanded uncertainty stated by the source.

In the case of `Cc1ccccc1C` [1,2-dimethylbenzene] + CC(CC(C)(C)C)CP(=O)([O-])CC(C)CC(C)(C)C.CCCCCCCCCCCCCC[P+](CCCCCC)(CCCCCC)CCCCCC, the activity coefficient is, setting by setting: (313.15 K) 0.6 ± 0.04; (323.15 K) 0.62 ± 0.04; (333.15 K) 0.64 ± 0.04; (343.15 K) 0.67 ± 0.05.

`Cc1cccc(C)c1` [1,3-dimethylbenzene] + CC(CC(C)(C)C)CP(=O)([O-])CC(C)CC(C)(C)C.CCCCCCCCCCCCCC[P+](CCCCCC)(CCCCCC)CCCCCC: the activity coefficient worked out at 0.63 ± 0.04 (313.15 K), 0.65 ± 0.04 (323.15 K), 0.67 ± 0.05 (333.15 K) and 0.7 ± 0.05 (343.15 K).

As for `Cc1ccc(C)cc1` [1,4-dimethylbenzene] + CC(CC(C)(C)C)CP(=O)([O-])CC(C)CC(C)(C)C.CCCCCCCCCCCCCC[P+](CCCCCC)(CCCCCC)CCCCCC, the activity coefficient is, setting by setting: (313.15 K) 0.6 ± 0.04; (323.15 K) 0.63 ± 0.04; (333.15 K) 0.65 ± 0.04; (343.15 K) 0.69 ± 0.05.

On to `C=CCCCCCCCC` [1-decene] + CC(CC(C)(C)C)CP(=O)([O-])CC(C)CC(C)(C)C.CCCCCCCCCCCCCC[P+](CCCCCC)(CCCCCC)CCCCCC, for which the activity coefficient was 0.98 ± 0.06 (313.15 K), 1.04 ± 0.07 (323.15 K), 1.15 ± 0.07 (333.15 K) and 1.18 ± 0.08 (343.15 K).

In the case of `C=CCCCCC` [1-heptene] + CC(CC(C)(C)C)CP(=O)([O-])CC(C)CC(C)(C)C.CCCCCCCCCCCCCC[P+](CCCCCC)(CCCCCC)CCCCCC, the activity coefficient is, setting by setting: (313.15 K) 0.77 ± 0.05; (323.15 K) 0.81 ± 0.05; (333.15 K) 0.88 ± 0.06; (343.15 K) 0.95 ± 0.06.

Consider `C=CCCCCCCC` [1-nonene] + CC(CC(C)(C)C)CP(=O)([O-])CC(C)CC(C)(C)C.CCCCCCCCCCCCCC[P+](CCCCCC)(CCCCCC)CCCCCC, for which the activity coefficient by setting is: (313.15 K) 0.91 ± 0.06; (323.15 K) 0.95 ± 0.06; (333.15 K) 1.08 ± 0.07; (343.15 K) 1.14 ± 0.07.

Regarding `CC(C)CC(C)(C)C` [2,2,4-trimethylpentane] + CC(CC(C)(C)C)CP(=O)([O-])CC(C)CC(C)(C)C.CCCCCCCCCCCCCC[P+](CCCCCC)(CCCCCC)CCCCCC, the activity coefficient reads like this: (313.15 K) 0.92 ± 0.06; (323.15 K) 0.96 ± 0.06; (333.15 K) 1.04 ± 0.07; (343.15 K) 1.14 ± 0.07.

On to `CCC(C)(C)C` [2,2-dimethylbutane] + CC(CC(C)(C)C)CP(=O)([O-])CC(C)CC(C)(C)C.CCCCCCCCCCCCCC[P+](CCCCCC)(CCCCCC)CCCCCC, for which the activity coefficient came out at 0.78 ± 0.05 (313.15 K), 0.82 ± 0.05 (323.15 K), 0.9 ± 0.06 (333.15 K) and 0.97 ± 0.06 (343.15 K).

In the case of `CC(C)=O` [acetone] + CC(CC(C)(C)C)CP(=O)([O-])CC(C)CC(C)(C)C.CCCCCCCCCCCCCC[P+](CCCCCC)(CCCCCC)CCCCCC, the activity coefficient came out at 0.7 ± 0.05 (313.15 K), 0.72 ± 0.05 (323.15 K), 0.78 ± 0.05 (333.15 K) and 0.83 ± 0.05 (343.15 K).

Turning to `CC#N` [acetonitrile] + CC(CC(C)(C)C)CP(=O)([O-])CC(C)CC(C)(C)C.CCCCCCCCCCCCCC[P+](CCCCCC)(CCCCCC)CCCCCC, the activity coefficient (313.15 K) was 1.34 ± 0.09, the activity coefficient (323.15 K) worked out at 1.4 ± 0.09, the activity coefficient (333.15 K) was determined as 1.41 ± 0.09 and the activity coefficient (343.15 K) amounted to 1.46 ± 0.1.

As for `c1ccccc1` [benzene] + CC(CC(C)(C)C)CP(=O)([O-])CC(C)CC(C)(C)C.CCCCCCCCCCCCCC[P+](CCCCCC)(CCCCCC)CCCCCC, the activity coefficient runs as follows: (313.15 K) 0.42 ± 0.04; (323.15 K) 0.45 ± 0.04; (333.15 K) 0.49 ± 0.04; (343.15 K) 0.52 ± 0.04.

For `CCCCO` [butan-1-ol] + CC(CC(C)(C)C)CP(=O)([O-])CC(C)CC(C)(C)C.CCCCCCCCCCCCCC[P+](CCCCCC)(CCCCCC)CCCCCC, the activity coefficient runs as follows: (333.15 K) 0.11 ± 0.03; (343.15 K) 0.12 ± 0.03.

`CCC(C)=O` [butanone] + CC(CC(C)(C)C)CP(=O)([O-])CC(C)CC(C)(C)C.CCCCCCCCCCCCCC[P+](CCCCCC)(CCCCCC)CCCCCC: the activity coefficient is, setting by setting: (313.15 K) 0.65 ± 0.04; (323.15 K) 0.67 ± 0.05; (333.15 K) 0.72 ± 0.05; (343.15 K) 0.77 ± 0.05.

Turning to `C1=CCCCC1` [cyclohexene] + CC(CC(C)(C)C)CP(=O)([O-])CC(C)CC(C)(C)C.CCCCCCCCCCCCCC[P+](CCCCCC)(CCCCCC)CCCCCC, the activity coefficient turned out to be 0.57 ± 0.04 (313.15 K), 0.59 ± 0.04 (323.15 K), 0.64 ± 0.04 (333.15 K) and 0.68 ± 0.05 (343.15 K).

For `C1CCCCCCC1` [cyclooctane] + CC(CC(C)(C)C)CP(=O)([O-])CC(C)CC(C)(C)C.CCCCCCCCCCCCCC[P+](CCCCCC)(CCCCCC)CCCCCC, the activity coefficient was 0.7 ± 0.05 (313.15 K), 0.71 ± 0.05 (323.15 K), 0.77 ± 0.05 (333.15 K) and 0.79 ± 0.05 (343.15 K).

As for `CCCCCCCCCC` [decane] + CC(CC(C)(C)C)CP(=O)([O-])CC(C)CC(C)(C)C.CCCCCCCCCCCCCC[P+](CCCCCC)(CCCCCC)CCCCCC, the activity coefficient by setting is: (313.15 K) 1.22 ± 0.08; (323.15 K) 1.28 ± 0.08; (333.15 K) 1.33 ± 0.09; (343.15 K) 1.39 ± 0.09.

With `CCO` [ethanol] + CC(CC(C)(C)C)CP(=O)([O-])CC(C)CC(C)(C)C.CCCCCCCCCCCCCC[P+](CCCCCC)(CCCCCC)CCCCCC, the activity coefficient is, setting by setting: (323.15 K) 0.04; (333.15 K) 0.06; (343.15 K) 0.07 ± 0.03.

As to `CCc1ccccc1` [ethylbenzene] + CC(CC(C)(C)C)CP(=O)([O-])CC(C)CC(C)(C)C.CCCCCCCCCCCCCC[P+](CCCCCC)(CCCCCC)CCCCCC, the activity coefficient reads like this: (313.15 K) 0.57 ± 0.04; (323.15 K) 0.6 ± 0.04; (333.15 K) 0.65 ± 0.04; (343.15 K) 0.68 ± 0.05.

As for `CCCCCC` [hexane] + CCCCCCCCCCCCCCCC, under “298.15 K”, the activity coefficient was determined as 0.874 ± 0.056.

`CO` [methanol] + CC(CC(C)(C)C)CP(=O)([O-])CC(C)CC(C)(C)C.CCCCCCCCCCCCCC[P+](CCCCCC)(CCCCCC)CCCCCC: the activity coefficient by setting is: (313.15 K) 0.03; (323.15 K) 0.04; (333.15 K) 0.05; (343.15 K) 0.06.

As for `CC1CCCCC1` [methylcyclohexane] + CC(CC(C)(C)C)CP(=O)([O-])CC(C)CC(C)(C)C.CCCCCCCCCCCCCC[P+](CCCCCC)(CCCCCC)CCCCCC, the activity coefficient was found to be 0.64 ± 0.04 (313.15 K), 0.68 ± 0.05 (323.15 K), 0.73 ± 0.05 (333.15 K) and 0.78 ± 0.05 (343.15 K).

With `CCCCCCCCC` [nonane] + CC(CC(C)(C)C)CP(=O)([O-])CC(C)CC(C)(C)C.CCCCCCCCCCCCCC[P+](CCCCCC)(CCCCCC)CCCCCC, the activity coefficient (313.15 K) stood at 1.04 ± 0.07, the activity coefficient (323.15 K) was determined as 1.11 ± 0.07, the activity coefficient (333.15 K) worked out at 1.23 ± 0.08 and the activity coefficient (343.15 K) came out at 1.25 ± 0.08.

Consider `CCCO` [propan-1-ol] + CC(CC(C)(C)C)CP(=O)([O-])CC(C)CC(C)(C)C.CCCCCCCCCCCCCC[P+](CCCCCC)(CCCCCC)CCCCCC, for which the activity coefficient is 0.07 ± 0.03 (323.15 K), 0.08 ± 0.03 (333.15 K) and 0.09 ± 0.03 (343.15 K).

Regarding `C1CCOC1` [tetrahydrofuran] + CC(CC(C)(C)C)CP(=O)([O-])CC(C)CC(C)(C)C.CCCCCCCCCCCCCC[P+](CCCCCC)(CCCCCC)CCCCCC, the activity coefficient amounted to 0.43 ± 0.04 (313.15 K), 0.45 ± 0.04 (323.15 K), 0.49 ± 0.04 (333.15 K) and 0.52 ± 0.04 (343.15 K).

As for `c1ccsc1` [thiophene] + CC(CC(C)(C)C)CP(=O)([O-])CC(C)CC(C)(C)C.CCCCCCCCCCCCCC[P+](CCCCCC)(CCCCCC)CCCCCC, the activity coefficient turned out to be 0.35 ± 0.03 (313.15 K), 0.4 ± 0.03 (323.15 K), 0.41 ± 0.03 (333.15 K) and 0.44 ± 0.04 (343.15 K).

As to `Cc1ccccc1` [toluene] + CC(CC(C)(C)C)CP(=O)([O-])CC(C)CC(C)(C)C.CCCCCCCCCCCCCC[P+](CCCCCC)(CCCCCC)CCCCCC, the activity coefficient is, setting by setting: (313.15 K) 0.5 ± 0.04; (323.15 K) 0.51 ± 0.04; (333.15 K) 0.56 ± 0.04; (343.15 K) 0.59 ± 0.04.

Consider `O` [water] + CC(CC(C)(C)C)CP(=O)([O-])CC(C)CC(C)(C)C.CCCCCCCCCCCCCC[P+](CCCCCC)(CCCCCC)CCCCCC, for which the activity coefficient is 0.26 ± 0.03 (313.15 K), 0.27 ± 0.03 (323.15 K), 0.3 ± 0.03 (333.15 K) and 0.31 ± 0.03 (343.15 K).
